Assay results taken from patent US20220395490A1, “TREATMENT OF ARTHRITIS” (Inflazome Limited, priority 2019, published 2022).
Read-outs that look alike come from different tables or passages of the source.

How the values were obtained:
[1] = tested on: MSU-induced knee inflammation (gout) in male Wistar rats; assay: Prophylactic efficacy in rodent model of MSU-induced knee inflammation (gout); type: in vivo; conditions: for effect on pain associated with MSU-induced knee edema (mechanical allodynia, von Frey) / inhibition of the MSU-stimulated knee edema: 10 mg/kg once daily oral
Method: To determine the oral anti-inflammatory and anti-nociceptive efficacy of prophylactic treatment with the compound of formula (I) in a rodent model MSU-induced knee inflammation (gout) in male Wistar rats.
A. Preparation of MSU crystals: • 1. 4 g uric acid was dissolved in 800 ml 0.03 N NaOH and heated to 60° C. NaOH was added as required to maintain pH 8.9. The solution was stored overnight at 4-8° C. • 2. Crystals were filtered, washed and dried. • 3. Crystals were suspended in sterile saline just prior to use.
B. Efficacy Study: • 1. […] DAY −1. Baseline readings were taken
Baseline knee diameters were measured by digital caliper.
Baseline responses to mechanical allodynia, as measured by von Frey fibres, were recorded. • 3. DAY 0:
a. The rats were weighed and dosed by oral gavage with vehicle, prednisolone (10 mg/kg) or the compound of formula (I) (1, 3 or 10 mg/kg)
b. One hour after dosing, rats in Groups 1-5 were anesthetized and injected IA into the left knee with 2 mg MSU in 50 μl saline. • 4. DAY 1:
a. Rats were weighed and dosed as on DAY 0.
b. One hour after dosing, mechanical allodynia and knee diameters were measured and recorded. • 5. DAY 2:
b. One hour after dosing, mechanical allodynia and knee diameters were measured and recorded.
c. Four hours after final dosing, terminal bleeds were collected.

[2] = tested on: MSU-induced knee inflammation (gout) in male Wistar rats; type: in vivo; conditions: for left knee diameter on DAY 3: vehicle group 15.0 mm; for response to mechanical allodynia on DAY 3: vehicle group 5.8; for reduction in the MSU-induced edema and pain: daily
Method: To determine the oral anti-inflammatory and anti-nociceptive efficacy of therapeutic treatment with the compound of formula (I) in a rodent model MSU-induced knee inflammation (gout) in male Wistar rats.
300 mg MSU crystal were suspended in 7.5 ml PBS (Sigma, Cat. D8662, lot. RNBG0405, exp. April 2019) to prepare a 40 mg/ml suspension. Material was kept in a sonicating water bath to maintain homogeneous suspension between injections. The rats were weighed.
The rats were anesthetized (SOP 1810), knees were shaved, and injected into the left knee with 50 μl MSU (2 mg) crystals using a 25 G needle fitted to a 1 ml syringe.
Group 1=PBS (Sigma, Cat. D8662, lot RNBG0405, exp. […]). Dosed at 1 ml/kg, PO.
Group 3=37 mg of the compound of formula (I) was dissolved in 3.7 ml PBS to prepare a 10 mg/ml solution. Dosed at 1 ml/kg, PO.
Test materials were made fresh daily. All rats were weighed and dosed by intraperitoneal injection or orally. Mechanical allodynia responses and knee diameters were recorded one hour post dosing.
On DAY 3, four hours after dosing, the rats were anesthetized and exsanguinated into pre-chilled K2 EDTA vacutainer tubes (Becton Dickinson, Cat. 367844, lot 6253682, exp. Jan. 31, 2018). The blood was processed to plasma, gently mixed and centrifuged at 4° C. 1800g for 10 minutes not later than 20 minutes from blood collection, which was stored in two 90 μl minimum volume and four 20 μl aliquots were prepared in labeled eppendorf tubes, and immediately stored frozen at −80° C. The carcasses were disposed of appropriately.

[3] = starting one hour prior to intra-articular 2 mg MSU
[4] = 1 mg/kg (Group 5) once daily oral, starting one hour prior to intra-articular 2 mg MSU

| effect on animal weight ([1]; prednisolone 10 mg/kg once daily oral) | effect on animal weight ([1]; sodium salt in PBS, once daily oral, 1, 3 or 10 mg/kg) | Compound | effect on pain associated with MSU-induced knee edema (mechanical allodynia, von Frey) [1, 3] | inhibition of the MSU-stimulated knee edema [1, 3] [%] | left knee diameter on DAY 3 ([2]; 10 mg/kg PO once daily Day 1-3 after 2 mg MSU, baseline 12.3 mm) [mm] | response to mechanical allodynia on DAY 3 ([2]; 10 mg/kg PO once daily Day 1-3 after 2 mg MSU, baseline 14.5) | reduction in the MSU-induced edema and pain ([2]; 10 mg/kg orally) | reduction of knee edema [1, 4] [%] | reduction of pain response (mechanical allodynia) [1, 4] [%] | efficacy of intermediate dose compared with high dose (10 mg/kg) ([1]; 3 mg/kg (Group 4) once daily oral) | inhibition of the MSU-stimulated response across doses ([1]; once daily oral 1, 3, 10 mg/kg) | left knee diameter on DAY 3 ([2]; Anakinra 50 mg/kg IP once daily Day 1-3 after 2 mg MSU, baseline 12.4 mm) [mm] | response to mechanical allodynia on DAY 3 ([2]; Anakinra 50 mg/kg IP once daily Day 1-3 after 2 mg MSU, baseline 13.9) | reduction in the MSU-induced edema and pain ([2]; Anakinra 50 mg/kg by peritoneal injection) | effect on animal health ([2]; rat, in vivo, ip) |
| --- | --- | --- | --- | --- | --- | --- | --- | --- | --- | --- | --- | --- | --- | --- | --- |
| no significant effect |  | C[C@]12C=CC(=O)C=C1CC[C@@H]1[C@@H]2[C@@H](O)C[C@@]2(C)[C@H]1CC[C@]2(O)C(=O)CO [prednisolone, reference compound] | significant insensitivity to pain | 52 |  |  |  |  |  |  |  |  |  |  |  |
|  | no significant effect | CC(C)n1ccc(S(=O)(=O)NC(=O)Nc2c3c(cc4c2CCC4)CCC3)n1 [compound of formula (I)] | complete blockade | 49 | 13.6 | 12.5 grams of pressure | significant reduction | 34 | 66 | no significant difference | significant dose-dependent inhibition |  |  |  |  |
|  |  | Anakinra |  |  |  |  |  |  |  |  |  | 14.0 | 9.0 grams of pressure | significant reduction | no effect |
